The results in this text go back to ChEMBL document CHEMBL4715764, “ArgTX-636, a polyamine isolated from spider venom: A novel class of melanogenesis inhibitors” (Bioorg Med Chem, 2016).

Data set [1] deals with T1, Mushroom tyrosinase (Agaricus bisporus, UniProt O42713+Q00024+C7FF04+C7FF05).
Description: Inhibition of diphenolase activity of mushroom tyrosinase using L-DOPA substrate
Data set [2] deals with T2, Mushroom tyrosinase (Agaricus bisporus) (UniProt O42713+Q00024+C7FF04+C7FF05). Put plainly: (§1) Inhibition of mushroom tyrosinase using DHICA as substrate measured for 15 mins by UV-vis spectrophotometry.
Data set [3] deals with T1, Mushroom tyrosinase. Described as §1.
Data set [4] has as its system B16-F10. Put plainly: Inhibition of melanin production in mouse B16-F10 cells incubated for 48 hrs. The class given is functional, cell-based. Particulars: dose 0-0.0421 µM.
Data set [5] has as its target T3, Tyrosinase (Mus musculus) (UniProt P11344).
T3 sequence (whole entry): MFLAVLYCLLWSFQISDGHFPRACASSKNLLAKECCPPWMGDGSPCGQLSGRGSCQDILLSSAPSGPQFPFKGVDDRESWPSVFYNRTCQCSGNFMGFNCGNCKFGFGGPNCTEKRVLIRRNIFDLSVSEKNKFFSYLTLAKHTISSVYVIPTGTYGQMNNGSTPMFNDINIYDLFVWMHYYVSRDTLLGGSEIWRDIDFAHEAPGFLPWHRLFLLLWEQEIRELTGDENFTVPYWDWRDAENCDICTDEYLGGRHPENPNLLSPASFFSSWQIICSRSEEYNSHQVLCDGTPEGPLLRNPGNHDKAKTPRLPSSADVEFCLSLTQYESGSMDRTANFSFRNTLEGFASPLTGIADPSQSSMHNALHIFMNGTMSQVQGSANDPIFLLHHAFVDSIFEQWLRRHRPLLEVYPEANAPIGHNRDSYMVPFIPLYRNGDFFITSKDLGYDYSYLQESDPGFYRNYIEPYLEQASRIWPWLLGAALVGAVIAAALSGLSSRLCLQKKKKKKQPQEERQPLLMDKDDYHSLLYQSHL
Put plainly: Inhibition of tyrosinase in mouse B16-F10 cells at 0.421 uM using L-DOPA as substrate incubated for 30 mins followed by substrate addition and measured after 40 mins. The class given is cell-based. Particulars: time 70.0 min.

The subject of data set [6] is B16-F10. Put plainly: Reduction in alpha-MSH-induced TRP-1 expression in mouse B16-F10 cells at 0.041 uM incubated for 48 hrs by Western blot analysis. The class given is functional, cell-based.
In data set [7] the test system is B16-F10. Description: Cytotoxicity against mouse B16-F10 cells assessed as reduction in cell viability at 42.1 uM incubated for 6 hrs by MTT assay. The class given is cell-based. Particulars: b16-f10, 6 h.
For the next data set, the system named is M4Beu cell line. Description: Cytotoxicity against human M4Be cells assessed as reduction in cell viability at 42.1 uM incubated for 6 hrs by MTT assay. It is filed as cell-based. (Tetrazolium assays rely on reduction of a dye to a coloured formazan, in cell work by metabolically active cells.)
The target in data set [8] is T2, Mushroom tyrosinase (Agaricus bisporus). Put plainly: (§2) Inhibition of mushroom tyrosinase using L-DOPA as substrate measured for 15 mins by UV-vis spectrophotometry.
In data set [9] the target is T1, Mushroom tyrosinase. The data set is described as §2.
Data set [10] deals with B16-F10. Put plainly: Reduction in alpha-MSH-induced tyrosinase expression in mouse B16-F10 cells at 0.041 uM incubated for 48 hrs by Western blot analysis. The class given is functional, cell-based. In general terms: A western blot detects proteins with antibodies after separation by electrophoresis.
Data set [11] addresses T1, Mushroom tyrosinase. Put plainly: Mixed type inhibition of mushroom tyrosinase using L-DOPA as substrate assessed as inhibitory constant measured for 15 mins by UV-vis spectrophotometry based Line-weaver Burk plot analysis.
Data set [12] has as its target T1, Mushroom tyrosinase. Put plainly: Mixed type inhibition of mushroom tyrosinase using L-DOPA as substrate assessed as enzyme-substrate complex constant measured for 15 mins by UV-vis spectrophotometry based Line-weaver Burk plot analysis.

The source made the active and inactive calls. No cut-off for these calls is given here.

For `CC1(C)S[C@@H]2[C@H](NC(=O)[C@H](N)c3ccc(O)cc3)C(=O)N2[C@H]1C(=O)O` [AMOXICILLIN], the IC50 against Mushroom tyrosinase [1] worked out at 9000 µM.
Regarding `O=C(O)/C=C/c1ccc(Cn2ccnc2)cc1` [OZAGREL], the IC50 against Mushroom tyrosinase [1] turned out to be 3450 µM.
With `N=C(N)NCCC[C@H](N)C(=O)NCCCNCCCNCCCCCNC(=O)[C@H](CC(N)=O)NC(=O)Cc1ccc(O)cc1O`, the inhibition result (in data set [2]; in the data set on B16-F10 [4]; in [8]) was “Dose-dependent effect” in each case. Besides, the concentration for half-maximal inhibition (IC50) is 48.22 µM against Mushroom tyrosinase [3] and 8.34 µM against Mushroom tyrosinase [9]. In addition, the inhibition entry (in data set [5]; in the data set on B16-F10 [6]) was “Active” each time. In addition, the Activity result with B16-F10 [7] and in the data set on M4Beu cell line was “Non-Toxic” throughout. The inhibition result in the data set with B16-F10 [10] was “inactive”. Moreover, the Ki on Mushroom tyrosinase [11] is 10.77 µM; at Mushroom tyrosinase [12] it was 20.36 µM.
For `CC1(C)C=Cc2c(cc3c(c2O)C(=O)CC(c2ccc(O)cc2O)O3)O1` (configuration not stated) [DALENIN], the IC50 against Mushroom tyrosinase [1] was found to be 18.61 µM.
`OC1COC(O)C(O)C1O` (racemic) showed a concentration for half-maximal inhibition (IC50) against Mushroom tyrosinase [1] of 100 µM.
Compound `S=C1NCC(c2ccccc2)O1` (configuration not stated) had an IC50 against Mushroom tyrosinase [1] of 42 µM.

As a reminder, the IC50 is the concentration needed to halve the response being measured. Higher therefore signals lower potency. A word on the Ki: it is a measure of affinity in units of concentration, obtained from inhibition or displacement.
